Legend:
spinal cord = test: Histological analysis of lesion volume, tissue sparing and myelin after SCI; type: in vivo, Sprague-Dawley rats
Method: (§1) Adult females Sprague-Dawley rats aged 11 weeks (220-250 g) were anesthetized with pentobarbital (40 mg/kg i.p.). When unresponsive, the vertebral column was exposed and a laminectomy carried out at T8-T9 levels. Rostral T7 and caudal T10 vertebral bodies were clamped with Adson stabilizing forceps, and carefully adjusted to level the spinal cord in the horizontal plane. A contusion injury was performed using the Infinite Horizon impactor device (Precision Scientific Instruments, Lexington, KY). The stainless steel impounder tip was placed at 3-4 mm above the exposed spinal cord, and then a fast impact produced applying forces of 150 or 250 kilodynes (KDyn) to the exposed spinal cord. The wound was sutured with 5-0 silk thread in the muscular plane and the skin was closed with small clips and disinfected with povidone iodine solution. Sham-operated animals received the same surgical procedure but sustained no impact injury; the spinal cord was left exposed for 5 min. The animals were maintained in a warm environment until full recovery, and received preventive antibiotic (amoxicyline) and analgesic (buprenorphine) treatment. All animals were kept under standard conditions of light and temperature and fed with food and water ad libitum. The procedures involving animals were approved by the Ethics Committee of our institution, and followed the European Communities Council Directive 86/609/EEC.
VPA was intraperitoneally administered at an initial dose of 150 mg/kg by 3 h after surgery, and then a dose of 300 mg/Kg either every 24 h or every 12 h during the first week post-surgery, following by a dose of 300 mg/Kg every 24 h for the next two weeks. Groups of rats subjected to SCI or sham operation received VPA or saline injections following the same regime. Experiments were approved by the Ethics Committee at the Universitat Autònoma de Barcelona, and followed the European Communities Council Directive 86/609/EEC
At 3 or 35 days post-surgery, rats were perfused transcardially with 4% paraformaldehyde in 0.1M phosphate buffer saline (PBS, pH 7.4). […]

CHOP = test: Tunicamycin-induced ER stress in HEK cell line, Western blot of CHOP; type: cell-based; conditions: 3 µg/ml tunicamycin, valproate
Method: Primary fibroblasts obtained from rat sciatic nerve and HEK cell line were cultured in Dulbecco's modified Eagle's/F-12 medium supplemented with 10% fetal calf serum (Gibco). Fibroblasts were treated with 3 µg/mL of tunicamycin (Sigma) for 4 h and harvested in RIPA buffer for protein extraction.
We have recently reported that SCI triggers an unbalanced UPR characterized by unchanged levels of BiP/Grp78 levels but progressive accumulation of the pro-apoptotic protein CHOP, with maximal CHOP levels found at 3 days post-injury in the weight-drop contusion model (Penas et al, 2007). In this study, we used a contusion model using an impactor device to specifically control the force (either 150 KDyn or 250 KDyn) to be apply on the T8 laminectomized spinal cord segment. We analyzed the spinal cord 8 mm-length segment that includes the lesion epicenter from sham-operated animals and from VPA treated or vehicle treated SCI animals at 3 days after operation. […] Thus, we increased the amount of VPA administered to 300 mg/kg every 12 h, as reported previously for a brain stroke rat model (Kim et al, 2007), and analyzed the effect using two different contusion forces of 150 and 250 KDyn. We observed that the levels of CHOP were directly proportional to the severity of the lesion; the more severe, the higher the level. […]

[1] = system: oligodendrocytes, astrocytes; test: Immunohistochemistry of glia (CC1/APC oligodendrocytes, GFAP astrocytes) after SCI; type: in vivo, Sprague-Dawley rats
Method: as §1, with “The procedures involving animals were approved by the Ethics Committee of our institution, and followed the European Communities Council Directive 86/609/EEC.” left out

[2] = epicenter and adjacent section of the spinal cord, 35 days

**Q.** Which results are given for `CCCC(CCC)C(=O)O` [VPA, 2-propylpentanoic acid]?
**A.** extent of myelin loss (spinal cord; 2 mm from the epicenter, cresyl violet and luxol fast blue, 35 dpo): markedly reduced; area of total tissue preserved (spinal cord; [2]): significantly increased; area of white matter preserved (spinal cord; [2]): significantly increased; CHOP accumulation promoted by tunicamycin (CHOP): can be attenuated; total GFAP immunoreactivity in astrocytes ([1]; 35 dpo): no significant alterations; proportion of oligodendrocytes ([1]; CC1 antibody, 1 and 2 mm caudal to the epicentre, vs vehicle): markedly increased
